We go through one compound from EP4623911A1, “PI4KB INHIBITORS FOR THE TREATMENT OF FATTY LIVER DISEASE” (ETH Zurich, priority 2024, dated 2025).

The data set has as its system steatotic human liver. In words: Ex vivo normothermic machine perfusion of a steatotic human liver graft. How it is done:
A human liver graft was perfused for 8 days, after being discarded from all Swiss transplant centers. Use of discarded grafts was approved by local authorities (Kantonale Ethik Kommission Zürich KEK Nr. 2017-000412). […] The liver was procured with a total ischemia time of 40 min after circulatory death of the donor. It was flushed with IGL-1 solution and perfused for 2 h with Belzer MPS at 8°C. The infrahepatic vena cava was closed with a suture and the hepatic artery, portal vein, suprahepatic vena cava and common bile duct were cannulated with steel cannulas. The graft was subsequently perfused with whole blood and a custom built normothermic perfusion machine (Eshmuminov,D. et al, Nat Biotechnol 38, (2020)). Hepatic arterial pressure was controlled to be 80/50 mmHg, allowing for an average flow of 0.25 L/min. A vasodilator, epoprostenol, was automatically infused to keep arterial flow stable. Oxygenation was automatically controlled with a setpoint partial pressure of oxygen equal to 12 kPa. Portal venous flow was controlled to be at 1 L/min, resulting in a pressure of 2 mmHg on average. Further, oxygenation of portal blood was automatically regulated to achieve 65% saturation in the vena cava. Use of an electric pinch valve further allowed for pressure regulation in the vena cava, keeping a constant pressure of 0 mmHg. Glucose levels were automatically controlled by using a real-time glucose sensor (CCIT) and automated insulin infusions, keeping glucose levels at 7 mmol/L from the second day of perfusion onwards. A dialysis bypass was used to clear waste metabolites and control haematocrit levels by using a fixed dialysate influx rate of 200 mL/h and an automatically controlled outflux. Liver function was well preserved for at least 6 days and cell viability, as monitored by ATP analysis and histology, remained until the end of perfusion. After 8 days of perfusion, the liver weight decreased to 1507g (without gallbladder) and was sent for pathological examination.
Perfusate was mixed with 6 units of red blood cell concentrate (A+), 5 units of fresh frozen […], one unit of thrombocytes and 200 mL of 20% human albumin (CSL Behring). An initial bolus of 2.25 g Tazobactam and 500 mg Methylprednisolone was administered after priming. During the perfusion, 1000 U of heparin were infused per hour. Further, 2.25 g of Tazobactam, 3.36 g of ursodesoxycholic acid and 500 mg of methylprednisolone were continuously infused per day. UCB9608 was administered as a daily bolus by adding 300 µL of 50 mM solution directly to the blood reservoir, targeting a final concentration in the perfusate of 10 µM. On the first day, a larger bolus of 600 µL was given.
Adipose depots, liver pieces, differentiated iBAs, HepG2, HEK293T and HEK293-AAV cell types were homogenized in RIPA buffer (50 mM Tris-HCl pH 7.4, 150 mM NaCl, 2 mM EDTA, 1.0% Triton X100, 0.5% sodium deoxycholate) with protease inhibitors (Complete, Roche) and phosphatase inhibitors (Halt phosphatase inhibitor cocktail, ThermoFisher). The homogenates were centrifuged at 12,000×g for 10 min at 4°C to remove debris and collect whole cell extract (WCE). The concentration of WCE was determined by DC Protein Assay (Bio-Rad). After boiling the sample with Lämmeli buffer at 95°C for 5 min, equal amount of proteins was loaded and separated on 12% SDS-PAGE. […]

[1] abbreviates: UCB9608 daily, target concentration 10 µM, 8 days perfusion, unchanged in two control grafts.

`COc1ccc(NC(=O)N2CCN(c3nc(N)nc4c3cnn4C)[C@@H](C)C2)c(C)c1` [UCB9608]: under setting [1], the “ATGL levels in human liver biopsies” value is recorded as “substantially elevated” and the “TG deposition in human liver biopsies” value is “reduced”. For the same compound, the “macrovesicular steatosis of the liver graft” value (after 8 days of perfusion, 15% before perfusion) was “less than 5%”. Moreover, where the note is “during perfusion with UCB9608”, the “bile acid excretion and oxygen consumption of the graft” value was “normal”; the “non-esterified fatty acids (NEFAs) from dialysate” value is “detected”.
